Patent publication US20220119354A1, “DIAMINO-SUBSTITUTED PYRIDINES AND PYRIMIDINES AS HERBICIDES” (FMC Corporation, priority 2019, published 2022)

Key:
Assay type in all cases: in vivo
[1] = test system: ragweed (common ragweed, Ambrosia elatior); assay: Test A postemergence, ragweed; details: 0 to 100 scale, 0 no effect, 100 complete control
Method in brief: (§1)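 Post: seedlings 2–10 cm, 1–2 leaves, foliar spray. Pre: soil spray after sowing in loam/sand blend. Both formulated in non-phytotoxic solvent with surfactant; injury scored visually 0–100 after ~10 d.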

[2] = test system: galium (catchweed bedstraw, Galium aparine); assay: Test A postemergence, galium; details: 0 to 100 scale, 0 no effect, 100 complete control
Method in brief: as §1

[3] = test system: pigweed (Amaranthus retroflexus); assay: Test A postemergence, pigweed; details: 0 to 100 scale, 0 no effect, 100 complete control
Method in brief: as §1

[4] = test system: blackgrass (Alopecurus myosuroides); assay: Test A postemergence, blackgrass; details: 0 to 100 scale, 0 no effect, 100 complete control
Method in brief: as §1

kochia (Kochia scoparia) [5] = assay: Test A postemergence, kochia; details: 0 to 100 scale, 0 no effect, 100 complete control
Method in brief: as §1

[6] = test system: sedge, umbrella (small-flower umbrella sedge, Cyperus difformis); assay: Test B flooded paddy test, umbrella sedge; details: Flood, 250 g ai/ha, applied to paddy water, 2-leaf stage, visual evaluation after 13 to 15 d
Method in brief: (§2)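 2-leaf seedlings; pots flooded 3 cm above soil; compound added straight to paddy water; depth maintained. Greenhouse 13–15 d. Visual rating vs controls, 0–100 scale (0 = no effect, 100 = complete control).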

[7] = test system: barnyardgrass (Echinochloa crus-galli); assay: Test B flooded paddy test, barnyardgrass; details: Flood, 250 g ai/ha, applied to paddy water, 2-leaf stage, visual evaluation after 13 to 15 d
Method in brief: as §2

[8] = test system: ryegrass, Italian (Lolium multiflorum); assay: Test A preemergence, Italian ryegrass; details: 0 to 100 scale, 0 is no effect, 100 is complete control
Method in brief: as §1

kochia (Kochia scoparia) [9] = assay: Test A preemergence, kochia; details: 0 to 100 scale, 0 is no effect, 100 is complete control
Method in brief: as §1

[10] = test system: ducksalad (Heteranthera limosa); assay: Test B flooded paddy test, ducksalad; details: Flood, 250 g ai/ha, applied to paddy water, 2-leaf stage, visual evaluation after 13 to 15 d
Method in brief: as §2

[11] = test system: wheat (Triticum aestivum); assay: Test A postemergence, wheat; details: 0 to 100 scale, 0 no effect, 100 complete control
Method in brief: as §1

[12] = test system: barnyardgrass (Echinochloa crus-galli); assay: Test A postemergence, barnyardgrass; details: 0 to 100 scale, 0 no effect, 100 complete control
Method in brief: as §1

[13] = test system: barnyardgrass (Echinochloa crus-galli); assay: Test A preemergence, barnyardgrass; details: 0 to 100 scale, 0 is no effect, 100 is complete control
Method in brief: as §1

[14] = test system: ragweed (common ragweed, Ambrosia elatior); assay: Test A preemergence, ragweed; details: 0 to 100 scale, 0 is no effect, 100 is complete control
Method in brief: as §1

rice (Oryza sativa) = assay: Test B flooded paddy test, rice; details: Flood, 250 g ai/ha, applied to paddy water, 2-leaf stage, visual evaluation after 13 to 15 d
Method in brief: as §2

[15] = test system: ryegrass, Italian (Lolium multiflorum); assay: Test A postemergence, Italian ryegrass; details: 0 to 100 scale, 0 no effect, 100 complete control
Method in brief: as §1

corn (Zea mays) = assay: Test A postemergence, corn; details: 0 to 100 scale, 0 no effect, 100 complete control
Method in brief: as §1

[16] = test system: pigweed (Amaranthus retroflexus); assay: Test A preemergence, pigweed; details: 0 to 100 scale, 0 is no effect, 100 is complete control
Method in brief: as §1

[17] = test system: foxtail, giant (Setaria faberii); assay: Test A postemergence, giant foxtail; details: 0 to 100 scale, 0 no effect, 100 complete control
Method in brief: as §1

[18] = test system: foxtail, giant (Setaria faberii); assay: Test A preemergence, giant foxtail; details: 0 to 100 scale, 0 is no effect, 100 is complete control
Method in brief: as §1

Row | Compound | Plant response rating, Ragweed ([1]; 125 g ai/ha) | Plant response rating, Ragweed ([1]; 500 g ai/ha) | Plant response rating, Galium ([2]; 125 g ai/ha) | Plant response rating, Galium ([2]; 500 g ai/ha) | Plant response rating, Pigweed ([3]; 125 g ai/ha) | Plant response rating, Pigweed ([3]; 500 g ai/ha) | Plant response rating, Blackgrass ([4]; 125 g ai/ha) | Plant response rating, Blackgrass ([4]; 500 g ai/ha) | Plant response rating, Kochia (kochia (Kochia scoparia) [5]; 125 g ai/ha) | Plant response rating, Kochia (kochia (Kochia scoparia) [5]; 500 g ai/ha) | Plant response rating, Sedge, Umbrella (0 to 100 scale, 0 is no effect, 100 is complete control) [6] | Plant response rating, Barnyardgrass (0 to 100 scale, 0 is no effect, 100 is complete control) [7] | Ryegrass, Italian plant response rating ([8]; 125 g ai/ha) | Ryegrass, Italian plant response rating ([8]; 500 g ai/ha) | Kochia plant response rating (kochia (Kochia scoparia) [9]; 125 g ai/ha) | Kochia plant response rating (kochia (Kochia scoparia) [9]; 500 g ai/ha) | Plant response rating, Ducksalad (0 to 100 scale, 0 is no effect, 100 is complete control) [10] | Plant response rating, Wheat ([11]; 125 g ai/ha) | Plant response rating, Wheat ([11]; 500 g ai/ha) | Plant response rating, Barnyardgrass ([12]; 125 g ai/ha) | further results
1 | CC[C@@H](Nc1ncc(C(F)(F)F)c(N)n1)c1coc2ccccc12 [Compound 80] | 90 | 90 | 70 | 90 | 100 | 100 | 0 | 70 | 80 | 90 | 95 | 90 | 70 | 100 | 90 | 100 | 85 | 30 | 30 | 40 | Plant response rating, Barnyardgrass ([12]; 500 g ai/ha): 100; Barnyardgrass plant response rating ([13]; 125 g ai/ha): 90; Barnyardgrass plant response rating ([13]; 500 g ai/ha): 100; Ragweed plant response rating ([14]; 125 g ai/ha): 100; Ragweed plant response rating ([14]; 500 g ai/ha): 100; Plant response rating, Rice (0 to 100 scale, 0 is no effect, 100 is complete control) (rice (Oryza sativa)): 10; Plant response rating, Ryegrass, Italian ([15]; 125 g ai/ha): 0; Plant response rating, Ryegrass, Italian ([15]; 500 g ai/ha): 90; Plant response rating, Corn (corn (Zea mays); 125 g ai/ha): 20; Plant response rating, Corn (corn (Zea mays); 500 g ai/ha): 50; Pigweed plant response rating ([16]; 125 g ai/ha): 90; Pigweed plant response rating ([16]; 500 g ai/ha): 100; Plant response rating, Foxtail, Giant ([17]; 125 g ai/ha): 0; Plant response rating, Foxtail, Giant ([17]; 500 g ai/ha): 0; Foxtail, Giant plant response rating ([18]; 125 g ai/ha): 90; Foxtail, Giant plant response rating ([18]; 500 g ai/ha): 100
2 | CC[C@H](Nc1ncc(C(F)(F)F)c(N)n1)c1coc2ccccc12 [Compound 81] | 0 | 20 | 0 | 30 | 0 | 80 | 0 | 0 | 20 | 40 | 0 | 0 | 0 | 60 | 0 | 20 | 0 | 0 | 0 | 0 | Plant response rating, Barnyardgrass ([12]; 500 g ai/ha): 0; Barnyardgrass plant response rating ([13]; 125 g ai/ha): 0; Barnyardgrass plant response rating ([13]; 500 g ai/ha): 0; Ragweed plant response rating ([14]; 125 g ai/ha): 0; Ragweed plant response rating ([14]; 500 g ai/ha): 70; Plant response rating, Rice (0 to 100 scale, 0 is no effect, 100 is complete control) (rice (Oryza sativa)): 0; Plant response rating, Ryegrass, Italian ([15]; 125 g ai/ha): 0; Plant response rating, Ryegrass, Italian ([15]; 500 g ai/ha): 0; Plant response rating, Corn (corn (Zea mays); 125 g ai/ha): 0; Plant response rating, Corn (corn (Zea mays); 500 g ai/ha): 0; Pigweed plant response rating ([16]; 125 g ai/ha): 0; Pigweed plant response rating ([16]; 500 g ai/ha): 10; Plant response rating, Foxtail, Giant ([17]; 125 g ai/ha): 0; Plant response rating, Foxtail, Giant ([17]; 500 g ai/ha): 10; Foxtail, Giant plant response rating ([18]; 125 g ai/ha): 0; Foxtail, Giant plant response rating ([18]; 500 g ai/ha): 20
